From patent US10512632B2, “1 H-pyrazolo[4,3-B]pyridines as PDE1 inhibitors” (priority 2016, dated 2019)

Assays:
[1] = molecular target: PDE1B (Homo sapiens (Human), UniProt Q01064); experiment: PDE1 inhibition assay (PDE1B), SPA with tritium labelled cAMP; assay type: biochemical; settings: 15 nM tritium labelled cAMP, 1 hr at room temperature
Text: (§1) Table 1 lists the IC50 value for inhibition of PDE1 by the compounds of the invention. […] PDE1 assays are described in the Experimental Section.

[2] = molecular target: PDE1A (Homo sapiens (Human), UniProt P54750); experiment: PDE1 inhibition assay (PDE1A), SPA with tritium labelled cAMP; assay type: biochemical; settings: 15 nM tritium labelled cAMP, 1 hr at room temperature
Text: as §1

PDE1A, sequence (P54750 whole entry): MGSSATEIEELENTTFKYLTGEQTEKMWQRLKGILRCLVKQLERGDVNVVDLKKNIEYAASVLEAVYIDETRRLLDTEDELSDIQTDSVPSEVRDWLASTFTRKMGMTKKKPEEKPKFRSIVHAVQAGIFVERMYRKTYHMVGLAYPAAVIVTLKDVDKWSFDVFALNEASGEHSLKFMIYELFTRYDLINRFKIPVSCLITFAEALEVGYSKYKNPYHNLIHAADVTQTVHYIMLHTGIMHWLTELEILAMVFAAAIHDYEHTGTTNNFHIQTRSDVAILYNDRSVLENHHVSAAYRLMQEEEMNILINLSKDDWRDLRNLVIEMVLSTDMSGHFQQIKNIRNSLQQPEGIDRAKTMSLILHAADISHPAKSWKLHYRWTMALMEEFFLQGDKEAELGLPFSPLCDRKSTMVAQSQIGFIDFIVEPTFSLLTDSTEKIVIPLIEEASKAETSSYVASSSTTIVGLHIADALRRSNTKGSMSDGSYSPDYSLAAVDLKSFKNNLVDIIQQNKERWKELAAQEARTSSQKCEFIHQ
PDE1B, sequence (Q01064 whole entry): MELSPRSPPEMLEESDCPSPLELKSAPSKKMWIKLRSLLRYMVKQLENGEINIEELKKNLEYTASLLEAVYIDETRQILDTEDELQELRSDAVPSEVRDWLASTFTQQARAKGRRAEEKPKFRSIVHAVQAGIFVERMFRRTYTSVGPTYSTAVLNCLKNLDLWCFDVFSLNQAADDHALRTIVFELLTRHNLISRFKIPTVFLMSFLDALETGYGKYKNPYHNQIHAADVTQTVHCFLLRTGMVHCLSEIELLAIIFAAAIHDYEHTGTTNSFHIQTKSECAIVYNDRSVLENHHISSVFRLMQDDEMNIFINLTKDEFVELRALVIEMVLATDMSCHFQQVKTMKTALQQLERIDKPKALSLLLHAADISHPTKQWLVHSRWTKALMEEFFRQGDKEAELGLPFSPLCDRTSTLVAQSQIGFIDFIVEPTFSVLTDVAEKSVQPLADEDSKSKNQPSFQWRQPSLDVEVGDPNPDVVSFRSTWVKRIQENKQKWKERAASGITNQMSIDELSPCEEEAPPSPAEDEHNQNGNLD

`CCOc1ncccc1-c1cc(NCc2ccncc2OC)c2c(n1)c(C)nn2C(C)C` [Example 172, 5-(2-ethoxy-3-pyridyl)-1-isopropyl-N-[(3-methoxy-4-pyridyl)methyl]-3-methyl-pyrazolo[4,3-b]pyridin-7-amine] gave an IC50 [1] of 5.5 nM and an IC50 [2] of 40 nM.
